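48-hour exposure; five concentrations; linearly interpolated endpoints. Abbreviation: GI50, concentration required for 50% inhibition of growth. At the TGI there is no net growth.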
Assays:
Test in all cases: NCI tumour cell line growth inhibition, 48 h
MALME-3M melanoma = test system: MALME-3M melanoma
MCF7 breast = test system: MCF7 breast
DU-145 prostate = test system: DU-145 prostate
SF-268 CNS = test system: SF-268 CNS
TK-10 renal = test system: TK-10 renal
RXF 393 renal = test system: RXF 393 renal
U251 CNS = test system: U251 CNS
HOP-92 NSCLC = test system: HOP-92 NSCLC
OVCAR-5 ovarian = test system: OVCAR-5 ovarian
MDA-MB-435 = test system: MDA-MB-435
SF-539 CNS = test system: SF-539 CNS
NCI-H460 lung = test system: NCI-H460 lung
T-47D breast = test system: T-47D breast
HT29 colon = test system: HT29 colon
SW-620 colon = test system: SW-620 colon
SNB-19 CNS = test system: SNB-19 CNS
ACHN renal = test system: ACHN renal
KM12 colon = test system: KM12 colon
PC-3 prostate = test system: PC-3 prostate
HOP-62 NSCLC = test system: HOP-62 NSCLC
HS 578T breast = test system: HS 578T breast
K-562 leukemia = test system: K-562 leukemia
A498 renal = test system: A498 renal
HCC-2998 colon = test system: HCC-2998 colon
BT-549 breast = test system: BT-549 breast
SK-MEL-2 melanoma = test system: SK-MEL-2 melanoma
OVCAR-3 ovarian = test system: OVCAR-3 ovarian
EKVX NSCLC = test system: EKVX NSCLC
SF-295 CNS = test system: SF-295 CNS
LOX IMVI melanoma = test system: LOX IMVI melanoma
HCT-116 colon = test system: HCT-116 colon
MDA-MB-231 breast = test system: MDA-MB-231 breast
SK-OV-3 ovarian = test system: SK-OV-3 ovarian
IGROV1 ovarian = test system: IGROV1 ovarian
M14 melanoma = test system: M14 melanoma
SR leukemia = test system: SR leukemia
OVCAR-4 ovarian = test system: OVCAR-4 ovarian
COLO 205 colon = test system: COLO 205 colon
SK-MEL-28 melanoma = test system: SK-MEL-28 melanoma
HL-60(TB) leukemia = test system: HL-60(TB) leukemia
CAKI-1 renal = test system: CAKI-1 renal
HCT-15 colon = test system: HCT-15 colon
NCI-H226 lung = test system: NCI-H226 lung
MDA-MB-468 breast = test system: MDA-MB-468 breast
RPMI-8226 leukemia = test system: RPMI-8226 leukemia
UO-31 renal = test system: UO-31 renal
UACC-257 melanoma = test system: UACC-257 melanoma
SN12C renal = test system: SN12C renal
OVCAR-8 ovarian = test system: OVCAR-8 ovarian
NCI-H23 lung = test system: NCI-H23 lung
NCI-H522 lung = test system: NCI-H522 lung
A549 NSCLC = test system: A549 NSCLC
786-0 renal = test system: 786-0 renal
SNB-75 CNS = test system: SNB-75 CNS
SK-MEL-5 melanoma = test system: SK-MEL-5 melanoma
CCRF-CEM leukemia = test system: CCRF-CEM leukemia
UACC-62 melanoma = test system: UACC-62 melanoma
MOLT-4 leukemia = test system: MOLT-4 leukemia

Compound: N#Cc1c(-c2ccccc2Cl)cc(-c2ccc3ccccc3c2)[nH]c1=O
- GI50 (MALME-3M melanoma): 16.3 µM
- TGI (MALME-3M melanoma): 35.7 µM
- GI50 (MCF7 breast): 38.1 µM
- TGI (MCF7 breast): > 100 µM
- GI50 (DU-145 prostate): 36.1 µM
- TGI (DU-145 prostate): > 100 µM
- GI50 (SF-268 CNS): 28.4 µM
- TGI (SF-268 CNS): > 100 µM
- GI50 (TK-10 renal): 18.3 µM
- TGI (TK-10 renal): 41.8 µM
- GI50 (RXF 393 renal): 13.5 µM
- TGI (RXF 393 renal): 28.8 µM
- GI50 (U251 CNS): 17.6 µM
- TGI (U251 CNS): 38.5 µM
- GI50 (HOP-92 NSCLC): 11.3 µM
- TGI (HOP-92 NSCLC): 26.8 µM
- GI50 (OVCAR-5 ovarian): 75.7 µM
- TGI (OVCAR-5 ovarian): > 100 µM
- GI50 (MDA-MB-435): 27.8 µM
- TGI (MDA-MB-435): > 100 µM
- GI50 (SF-539 CNS): 20.9 µM
- TGI (SF-539 CNS): 46 µM
- GI50 (NCI-H460 lung): 22.2 µM
- TGI (NCI-H460 lung): 56.9 µM
- GI50 (T-47D breast): 27.3 µM
- TGI (T-47D breast): > 100 µM
- GI50 (HT29 colon): > 100 µM
- TGI (HT29 colon): > 100 µM
- GI50 (SW-620 colon): 42 µM
- TGI (SW-620 colon): > 100 µM
- GI50 (SNB-19 CNS): 18.5 µM
- TGI (SNB-19 CNS): 42.5 µM
- GI50 (ACHN renal): 18.8 µM
- TGI (ACHN renal): 39.9 µM
- GI50 (KM12 colon): 88.4 µM
- TGI (KM12 colon): > 100 µM
- GI50 (PC-3 prostate): 41.1 µM
- TGI (PC-3 prostate): > 100 µM
- GI50 (HOP-62 NSCLC): 15.3 µM
- TGI (HOP-62 NSCLC): 29.8 µM
- GI50 (HS 578T breast): 18.5 µM
- TGI (HS 578T breast): 54.9 µM
- GI50 (K-562 leukemia): > 100 µM
- TGI (K-562 leukemia): > 100 µM
- GI50 (A498 renal): 15.9 µM
- TGI (A498 renal): 34.3 µM
- GI50 (HCC-2998 colon): 53.1 µM
- TGI (HCC-2998 colon): > 100 µM
- GI50 (BT-549 breast): 25.2 µM
- TGI (BT-549 breast): 85.9 µM
- GI50 (SK-MEL-2 melanoma): 14.9 µM
- TGI (SK-MEL-2 melanoma): 32.5 µM
- GI50 (OVCAR-3 ovarian): 24.2 µM
- TGI (OVCAR-3 ovarian): 94.3 µM
- GI50 (EKVX NSCLC): 31.4 µM
- TGI (EKVX NSCLC): > 100 µM
- GI50 (SF-295 CNS): 17.2 µM
- TGI (SF-295 CNS): 33.8 µM
- GI50 (LOX IMVI melanoma): 44.4 µM
- TGI (LOX IMVI melanoma): > 100 µM
- GI50 (HCT-116 colon): 27.2 µM
- TGI (HCT-116 colon): 89.8 µM
- GI50 (MDA-MB-231 breast): 20.3 µM
- TGI (MDA-MB-231 breast): 45.5 µM
- GI50 (SK-OV-3 ovarian): 15.9 µM
- TGI (SK-OV-3 ovarian): 32.4 µM
- GI50 (IGROV1 ovarian): 34.2 µM
- TGI (IGROV1 ovarian): > 100 µM
- GI50 (M14 melanoma): 20.1 µM
- TGI (M14 melanoma): 54.9 µM
- GI50 (SR leukemia): > 100 µM
- TGI (SR leukemia): > 100 µM
- GI50 (OVCAR-4 ovarian): 17.2 µM
- TGI (OVCAR-4 ovarian): 38.9 µM
- GI50 (COLO 205 colon): 53.5 µM
- TGI (COLO 205 colon): > 100 µM
- GI50 (SK-MEL-28 melanoma): 28.1 µM
- TGI (SK-MEL-28 melanoma): > 100 µM
- GI50 (HL-60(TB) leukemia): > 100 µM
- TGI (HL-60(TB) leukemia): > 100 µM
- GI50 (CAKI-1 renal): 15.9 µM
- TGI (CAKI-1 renal): 33.1 µM
- GI50 (HCT-15 colon): 84.8 µM
- TGI (HCT-15 colon): > 100 µM
- GI50 (NCI-H226 lung): 16.1 µM
- TGI (NCI-H226 lung): 38.9 µM
- GI50 (MDA-MB-468 breast): 23 µM
- TGI (MDA-MB-468 breast): 73.2 µM
- GI50 (RPMI-8226 leukemia): 76 µM
- TGI (RPMI-8226 leukemia): > 100 µM
- GI50 (UO-31 renal): 16 µM
- TGI (UO-31 renal): 34.9 µM
- GI50 (UACC-257 melanoma): 22.2 µM
- TGI (UACC-257 melanoma): 71.9 µM
- GI50 (SN12C renal): 31.7 µM
- TGI (SN12C renal): > 100 µM
- GI50 (OVCAR-8 ovarian): 17.6 µM
- TGI (OVCAR-8 ovarian): 36.3 µM
- GI50 (NCI-H23 lung): 28.4 µM
- TGI (NCI-H23 lung): > 100 µM
- GI50 (NCI-H522 lung): 68.2 µM
- TGI (NCI-H522 lung): > 100 µM
- GI50 (A549 NSCLC): 27.3 µM
- TGI (A549 NSCLC): > 100 µM
- GI50 (786-0 renal): 16.4 µM
- TGI (786-0 renal): 30.8 µM
- GI50 (SNB-75 CNS): 10.2 µM
- TGI (SNB-75 CNS): 27.7 µM
- GI50 (SK-MEL-5 melanoma): 15.6 µM
- TGI (SK-MEL-5 melanoma): 46.6 µM
- GI50 (CCRF-CEM leukemia): > 100 µM
- TGI (CCRF-CEM leukemia): > 100 µM
- GI50 (UACC-62 melanoma): 27.9 µM
- TGI (UACC-62 melanoma): > 100 µM
- GI50 (MOLT-4 leukemia): > 100 µM
- TGI (MOLT-4 leukemia): > 100 µM

Reference: PubChem BioAssay (NCI)
